Reference: patent US11111500B2, “Mutated protoporphyrinogen IX oxidase (PPX) genes” (CIBUS US LLC, priority 2010, dated 2021)
Where two headings read alike, the source gives them in different places.

Key:
[1] = test system: potato protoplasts (protoplast derived microcalli); assay: Flumioxazin kill curve with cell suspension and shoot tip-derived protoplasts; format: cell-based; details: for # Of calli in 3 beads, # / # Of calli in 3 beads, %: Non treated protoplast + PEG; for # Of calli in 3 beads, # / # Of calli in 3 beads, % / # of calli in 3 beads, # / # of calli in 3 beads, %: one month; for # Of calli in 3 beads, % / # of calli in 3 beads, %: % of average control; for # of calli in 3 beads, # / # of calli in 3 beads, %: Stop-GFP + Correcting GRON
Procedure: Herbicide selection experiments were performed to determine the concentration of herbicide necessary to kill protoplast derived microcalli in a defined treatment period. […] The herbicide was suspended in DMSO, with the final concentration of DMSO in the herbicide treatments being 1%. Development of cells was evaluated under the microscope once a week. […] A flumioxazin concentration of 0.032 mM is sufficient to prevent microcallus development from potato protoplasts.
(§1) About 200 shoot tips of 2-8 week-old in vitro shoots that have been cultured under a regular day/night regime, or, preferably were kept for two days before protoplast isolation in the dark, shoots may be cut into small pieces with a scalpel in a petri dish with sterile water. After all tips have been cut, the water is replaced with protoplast culture medium, preferably BN (B5 Salts and Vitamins (Phytotechnology Laboratories), glucose 20 g/L, mannitol 70 g/L, alpha naphthalene acetic acid 5 mg/L, additional CaCl2×2H2O 600 mg/L, casein hydrolysate 250 mg/L, cystcine-HCL 10 mg/L, polyvinylpyrrolidone (MW 10,000) 5 g/L. After approximately 1-2 h, the protoplast culture medium is replaced with enzyme solution, for example consisting of medium BN, in which 0.5% (w/v) Cellulase YC and 0.75% (w/v) Maccrozyme R10 (both from Karlan Research Products, Cottonwood, Ariz.), 1 g/L bovine serum albumin, and 1 g/L 2-morpholinoethanesulfonic acid are dissolved. The ratio of the number of shoot tips over the volume of enzyme solution can be between 10 and 16, preferably 13. The dish with shoot tip pieces in enzyme solution is incubated for at 25° C.-30° C., preferably 28° C., in darkness on a shaker set to about 50 rpm. After overnight incubation the protoplast suspension is purified using an iodixanol density gradient (adapted from Optiprep Application Sheet C18; Purification of Intact Plant Protoplasts; Axis-Shield USA, 10 Commerce Way, Norton, Mass. 02776). After the density gradient centrifugation, the band with purified protoplasts is removed together with about 5 mL W5 medium (Frigerio et al., 1998). The protoplast density and yield are determined with a hemocytometer. The protoplasts density is adjusted to 1×10^6/mL in BN medium containing 2 mg/L 2,6-dichlorobenzonitrile (cellulose synthase inhibitor), and the protoplasts are cultured in darkness at 30° C. for about 16 h.
(§2) 1. Fast growing cell suspensions are used, preferably three days after their last subculture. 1.5 mL settled cell volume is transferred to about 15 ml BN medium, which after 2 h is replaced with enzyme solution. 2. The protoplast purification is followed immediately by the GRON/PEG treatment.
(§3) The protoplast suspension is mixed with an equal volume of W5 medium, transferred to a 50 mL centrifuge tube, and centrifuged for 10 min at the lowest setting of a clinical centrifuge (about 50×g). The supernatant is removed and replaced with TM medium (Klaus, S. Markerfreie transplastome Tabakpflanzen (Marker-free transplastomic tobacco plants). PhD Dissertation, 2002, Ludwig-Maximilians-Universitát Múnchen, 109 pp), adjusting the protoplast density to 5×10^6/mL. Aliquots of 100 μL containing 5×10^5 protoplasts each are distributed into 12 mL round bottom centrifuge tubes. GRONs (such as those shown in Table 14) targeted at one or more mutations in one or both of the mitochondrial and plastidal PPX genes are then introduced into the protoplasts using a PEG treatment. To introduce the GRONs into the protoplasts, 12.5 μg GRON dissolved in 25 μL purified water and 125 μL of a polyethylene glycol solution (5 g PEG MW 1500, 638 mg mannitol, 207 mg CaNO3×4H2O and 8.75 mL purified water; pH adjusted to about 9.0) is added. After a 10-30 min incubation on ice, the protoplast-PEG suspension is washed with W5 medium and resuspended in medium BN. The suspension is kept overnight in darkness at room temperature.
(§4) One day after the GRON introduction, protoplasts are embedded in calcium alginate. […]

[2] = Solubility of herbicide in liquid culture selection media; format: physicochemical
Procedure: Liquid culture selection conditions were developed for both sulfentrazone and flumioxazin. Cultures of 1 mL volume were tested with sulfentrazone and flumioxazin concentrations ranging from 0 to 10 mM. The 0 mM samples had 25 μL DMSO (2.5%) to mimic the concentration of DMSO in the samples containing 10 mM herbicide. Each tube was inoculated with 10 μL of an overnight culture of HemG cells complemented with the wildtype PPX plasmid to ensure uniformity. Spectrophotometric readings (OD600) were taken for each sample (1:4 dilution) and a sample of each plated on LB-Chlor-IPTG plates to determine whether the OD600 correlated with the number of viable colonies. A 10% dilution of the overnight culture was plated for the sulfentrazone-treated cells and a 1% dilution for the cells treated with flumioxazin was plated (see results in Tables 8a-f and 9a-d).
Both sulfentrazone and flumioxazin precipitate out in the liquid media, causing it to appear opaque even before inoculating bacteria.

[3] = test system: potato protoplasts (protoplast-derived cells); assay: Sulfentrazone kill curve with cell suspension and shoot tip-derived protoplasts; format: cell-based; details: for Microcallus formation: exposed one month; for # Of calli in 3 beads, # / # Of calli in 3 beads, %: Non treated protoplast + PEG; for # Of calli in 3 beads, # / # Of calli in 3 beads, % / # of calli in beads, # / # of calli in beads, %: one month; for # Of calli in 3 beads, % / # of calli in beads, %: relative to 0.0 μM; for # of calli in beads, # / # of calli in beads, %: Stop-GFP + Correcting GRON protoplasts
Procedure: Herbicide selection experiments were performed to determine the concentration of herbicide necessary to kill protoplast derived microcalli in a defined treatment period. […] The herbicide was suspended in DMSO, with the final concentration of DMSO in the herbicide treatments being 1%. Development of cells was evaluated under the microscope once a week. […]
Therefore, new kill curves were initiated with lower concentrations of 0, 0.5, 0.6, 0.7 and 0.8 μM of sulfentrazone, shown in Table 1.3.
as §1, §2, §3, §4

SMILES: C#CCN1C(=O)COc2cc(F)c(N3C(=O)C4=C(CCCC4)C3=O)cc21 [flumioxazin]
- concentration sufficient to prevent microcallus development from potato protoplasts [1]: 0.032 mM
- # Of calli in 3 beads, # ([1]; flumioxazin 0.0156 μM): 40
- # Of calli in 3 beads, % ([1]; flumioxazin 0.0156 μM): 25%
- # Of calli in 3 beads, # ([1]; flumioxazin 0.0312 μM): 8
- # Of calli in 3 beads, % ([1]; flumioxazin 0.0312 μM): 5%
- # Of calli in 3 beads, # ([1]; flumioxazin 0.0468 μM): 0.0
- # Of calli in 3 beads, % ([1]; flumioxazin 0.0468 μM): 0.0%
- # Of calli in 3 beads, # ([1]; flumioxazin 0.0624 μM): 0
- # Of calli in 3 beads, % ([1]; flumioxazin 0.0624 μM): 0%
- # of calli in 3 beads, # ([1]; flumioxazin 0.0156 μM): 83
- # of calli in 3 beads, % ([1]; flumioxazin 0.0156 μM): 39%
- # of calli in 3 beads, # ([1]; flumioxazin 0.0312 μM): 11
- # of calli in 3 beads, % ([1]; flumioxazin 0.0312 μM): 4%
- # of calli in 3 beads, # ([1]; flumioxazin 0.0468 μM): 0.0
- # of calli in 3 beads, % ([1]; flumioxazin 0.0468 μM): 0.0%
- # of calli in 3 beads, # ([1]; flumioxazin 0.0624 μM): 0
- # of calli in 3 beads, % ([1]; flumioxazin 0.0624 μM): 0%
- microcalli development after one month ([1]; any concentration tested, 1% DMSO): no microcalli developed at any concentration tested
- concentration sufficient to kill all cells within a week ([1]; initial kill curve): 125 µM
- solubility in liquid media ([2]; liquid culture selection media, 0 to 10 mM, DMSO 2.5%): deficient solubility

SMILES: Cc1nn(-c2cc(NS(C)(=O)=O)c(Cl)cc2Cl)c(=O)n1C(F)F [sulfentrazone]
- Microcallus formation ([3]; 7.8 μM sulfentrazone): No
- Microcallus formation ([3]; 15.6 μM sulfentrazone): No
- Microcallus formation ([3]; 31.25 μM sulfentrazone): No
- Microcallus formation ([3]; 62.5 μM sulfentrazone): No
- # Of calli in 3 beads, # ([3]; 0.5 μM): 45
- # Of calli in 3 beads, % ([3]; 0.5 μM): 30%
- # Of calli in 3 beads, # ([3]; 0.6 μM): 8
- # Of calli in 3 beads, % ([3]; 0.6 μM): 6.9%
- # Of calli in 3 beads, # ([3]; 0.7 μM): 2
- # Of calli in 3 beads, % ([3]; 0.7 μM): 1.7%
- # Of calli in 3 beads, # ([3]; 0.8 μM): 0.0
- # Of calli in 3 beads, % ([3]; 0.8 μM): 0.0%
- # of calli in beads, # ([3]; 0.5 μM): 38
- # of calli in beads, % ([3]; 0.5 μM): 30.2%
- # of calli in beads, # ([3]; 0.6 μM): 12
- # of calli in beads, % ([3]; 0.6 μM): 9.6%
- # of calli in beads, # ([3]; 0.7 μM): 7
- # of calli in beads, % ([3]; 0.7 μM): 5.6%
- # of calli in beads, # ([3]; 0.8 μM): 0.0
- # of calli in beads, % ([3]; 0.8 μM): 0.0%
- concentration sufficient to kill all protoplast-derived cells ([3]; shoot tip-derived protoplasts and cell suspension): 7.8 µM
- solubility in liquid media [2]: eventually goes into solution
